Columns and labels:
[1] = system: Puccinia recondita f. sp. Tritici; assay: Fungicidal activity against Puccinia recondita f. sp. Tritici / wheat / leaf disc curative (brown rust); format: in vivo; details: foliar, 24 h, 200 ppm in the applied formulation, wheat leaf segments cv. Kanzler, applied 1 day after inoculation, vs untreated control, read-out: disease control
Method: Leaf disks or leaf segments of various plant species are cut from plants grown in a greenhouse. The cut leaf disks or segments are placed in multiwell plates (24-well format) onto water agar. The leaf disks are sprayed with a test solution before (preventative) or after (curative) inoculation. Compounds to be tested are prepared as DMSO solutions (max. 10 mg/ml) which are diluted to the appropriate concentration with 0.025% Tween20 just before spraying. The inoculated leaf disks or segments are incubated under defined conditions (temperature, relative humidity, light, etc.) according to the respective test system. A single evaluation of disease level is carried out 3 to 14 days after inoculation, depending on the pathosystem. Percent disease control relative to the untreated check leaf disks or segments is then calculated.
Wheat leaf segments cv. Kanzler are placed on agar in multiwell plates (24-well format). The leaf segments are then inoculated with a spore suspension of the fungus. Plates were stored in darkness at 19° C. and 75% relative humidity. The formulated test compound diluted in water was applied 1 day after inoculation. The leaf segments were incubated at 19° C. and 75% relative humidity under a light regime of 12 hours light/12 hours darkness in a climate cabinet and the activity of a compound was assessed as percent disease control compared to untreated when an appropriate level of disease damage appears in untreated check leaf segments (6 to 8 days after application).
The following compounds at 200 ppm in the applied formulation give at least 80% disease control in this test when compared to untreated control leaf disks under the same conditions, which show extensive disease development.

[2] = system: Glomerella lagenarium (Colletotrichum lagenarium); assay: Fungicidal activity against Glomerella lagenarium (Colletotrichum lagenarium) liquid culture / cucumber / preventative (anthracnose); format: cell-based; details: Colletotrichum orbiculare, 72 h; 20 ppm in the applied formulation; liquid culture (PDB), growth inhibition measured photometrically 3 to 4 days after application; vs untreated control; read-out: disease control
Summary of the method: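 Photometric measurement of fungal growth inhibition 3 to 4 days after application gives percent activity relative to untreated check. Conidia were suspended in potato dextrose broth and combined with DMSO compound solutions; incubation at 24° C.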

[3] = system: Phakopsora pachyrhizi; assay: Fungicidal activity against Phakopsora pachyrhizi / soybean / leaf disc preventative (Asian soybean rust); format: in vivo; details: foliar, 200 ppm in the applied formulation, soybean leaf disks, vs untreated control, read-out: disease control
Summary of the method: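 Soybean leaf discs on water agar sprayed with compound diluted in water, then inoculated with spores on the lower surface one day later. Kept 24-36 h dark, 20 °C, 75% rh, then 12 h light/12 h dark. Percent disease control versus untreated scored 12-14 days after application.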

[4] = system: Puccinia recondita f. sp. Tritici; assay: Fungicidal activity against Puccinia recondita f. sp. Tritici / wheat / leaf disc preventative (brown rust); format: in vivo; details: foliar, 200 ppm in the applied formulation, wheat leaf segments cv. Kanzler, inoculated 1 day after application, vs untreated control, read-out: disease control
Summary of the method: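 Wheat cv. Kanzler leaf segments on agar sprayed with diluted compound, inoculated with brown rust spores 1 day later. Kept at 19° C., 75% rh, 12 h light/dark; percent disease control versus untreated segments scored 7 to 9 days after application, compounds tested at 200 ppm.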

Row | SMILES | pest or weed control at 200 ppm [1] [%] | inhibition of growth at 20 ppm [2] [%] | pest or weed control at 200 ppm [3] [%] | pest or weed control at 200 ppm [4] [%]
1 | CON=CC(C)(C)NC(=O)c1ccc(-c2noc(C(F)(F)F)n2)cc1 [Compound 1.1, N-(2-methoxyimino-1,1-dimethyl-ethyl)-4-[5-(trifluoromethyl)-1,2,4-oxadiazol-3-yl]benzamide] | ≥ 80 | ≥ 80 | – | –
2 | CON=CC(C)(C)NC(=O)c1ccc(-c2noc(C(F)(F)F)n2)cc1F [Compound 1.2, 2-fluoro-N-(2-methoxyimino-1,1-dimethyl-ethyl)-4-[5-(trifluoromethyl)-1,2,4-oxadiazol-3-yl]benzamide] | ≥ 80 | ≥ 80 | ≥ 80 | –
3 | CC(C=NOCc1ccc([N+](=O)[O-])cc1)NC(=O)c1ccc(-c2noc(C(F)(F)F)n2)cc1 (stereo not shown) [Compound 1.16, N-[1-methyl-2-[(4-nitrophenyl)methoxyimino]ethyl]-4-[5-(trifluoromethyl)-1,2,4-oxadiazol-3-yl]benzamide] | ≥ 80 | – | ≥ 80 | –
4 | COc1cccc(CON=CC(C)NC(=O)c2ccc(-c3noc(C(F)(F)F)n3)cc2)c1 (stereo not shown) [Compound 1.17, N-[2-[(3-methoxyphenyl)methoxyimino]-1-methyl-ethyl]-4-[5-(trifluoromethyl)-1,2,4-oxadiazol-3-yl]benzamide] | ≥ 80 | ≥ 80 | ≥ 80 | –
5 | Cc1ccc(CON=CC(C)NC(=O)c2ccc(-c3noc(C(F)(F)F)n3)cc2)cc1 (stereo not shown) [Compound 1.18, N-[1-methyl-2-(p-tolylmethoxyimino)ethyl]-4-[5-(trifluoromethyl)-1,2,4-oxadiazol-3-yl]benzamide] | ≥ 80 | – | – | –
6 | COc1ccc(CON=CC(C)NC(=O)c2ccc(-c3noc(C(F)(F)F)n3)cc2)cc1 (stereo not shown) [Compound 1.19, N-[2-[(4-methoxyphenyl)methoxyimino]-1-methyl-ethyl]-4-[5-(trifluoromethyl)-1,2,4-oxadiazol-3-yl]benzamide] | ≥ 80 | – | ≥ 80 | –
7 | CC(C=NOCC(=O)O)NC(=O)c1ccc(-c2noc(C(F)(F)F)n2)cc1 (stereo not shown) [Compound 1.20, 2-[2-[[4-[5-(trifluoromethyl)-1,2,4-oxadiazol-3-yl]benzoyl]amino]propylidene-amino] oxyacetic acid] | ≥ 80 | ≥ 80 | – | ≥ 80
8 | CC(C=NO[C@H](C)C(=O)O)NC(=O)c1ccc(-c2noc(C(F)(F)F)n2)cc1 (stereo partly drawn) [Compound 1.29, (2R)-2-[2-[[4-[5-(trifluoromethyl)-1,2,4-oxadiazol-3-yl]benzoyl]amino]propylideneamino] oxypropanoic acid] | ≥ 80 | ≥ 80 | – | ≥ 80
9 | CC(C=NO[C@@H](C)C(=O)O)NC(=O)c1ccc(-c2noc(C(F)(F)F)n2)cc1 (stereo partly drawn) [Compound 1.32, (2S)-2-[2-[[4-[5-(trifluoromethyl)-1,2,4-oxadiazol-3-yl]benzoyl]amino]propylideneamino] oxypropanoic acid] | ≥ 80 | ≥ 80 | – | ≥ 80
10 | CC(C=NOC(C)C(=O)O)NC(=O)c1ccc(-c2noc(C(F)(F)F)n2)cc1 (stereo not shown) [Compound 1.37, 2-[2-[[4-[5-(trifluoromethyl)-1,2,4-oxadiazol-3-yl]benzoyl]amino]propylideneamino] oxypropanoic acid] | ≥ 80 | ≥ 80 | – | ≥ 80
11 | C[C@H](ON=CCNC(=O)c1ccc(-c2noc(C(F)(F)F)n2)cc1)C(=O)O [Compound 1.77, (2S)-2-[2-[[4-[5-(trifluoromethyl)-1,2,4-oxadiazol-3-yl]benzoyl]amino]ethylideneamino] oxypropanoic acid] | ≥ 80 | ≥ 80 | – | ≥ 80
